# Columns and labels:
# Type in all cases: cell-based, mice
# [1] = system: B cells cultured with TFH and TFR cells (suppressed cultures); assay: in vitro TFR suppression assay (B, TFH and TFR cells) with addition of cytokine; details: for amount of secreted antibody in culture supernatants: compared to activated cultures
# Experimental: To determine the mechanisms of how TFH and B cells are altered during direct TFR suppression, an in vitro suppression assay in which TFR cells are cultured with TFH and B cells was utilized. See e.g., Sage et al., J Clin Invest 124, 5191-5204 (2014); Sage et al., Immunity 41, 1026-1039 (2014); Sage et al., Methods Mol Biol 1291, 151-160 (2015). For these assays, FoxP3IRES-GFP mice were immunized with NP-OVA (emulsified in CFA) subcutaneously and isolated draining lymph nodes 7 days later. TFR (sorted as CD4+ICOS+CXCR5+CD19− FoxP3+) cells were added to co-cultures of B (sorted as CD19+) and TFH (sorted as CD4+ICOS+CXCR5+CD19−FoxP3) cells along with anti-CD3 and anti-IgM for 2 to 6 days (FIG. 1A, FIG. 36A, and FIG. 36B). After 6 days of co-culture of B and TFH cells, robust upregulation of the GC B cell marker GL7 was found as well as class switch recombination to IgG1, the predominant class switched isotype in this model (FIG. 1B). In addition, robust quantities of secreted IgG were found in the culture supernatant when B cells were cultured with TFH cells, but not when B cells were cultured alone. […] CD4^+CXCR5^−ICOS^−Foxp3^+ Treg cells were not able to suppress as efficiently as TFR cells did (FIG. 15). […] Therefore, this culture system is a robust model to study TFR suppression of TFH and B cells.
# It is possible that B cell function genes and multiple metabolic pathways cooperate to induce class switch recombination and antibody production in B cells. […] Therefore, to determine ways to overcome suppressed B cells therapeutically, it is possible that both B cell genes and metabolism would need to be energized to overcome suppression. […] When IL-21 was added to suppression assays, the attenuation in proliferation of B cells mediated by TFR cells was rescued (FIG. 11A).
# Since metabolism is essential to facilitate B cell effector functions and is regulated by TFR cells, the metabolic potential of B cells was assessed in suppressed cultures with the addition of IL-21. […] Similarly, Glut1 expression on TFH cells was rescued when IL-21 was added to suppressed cultures. […] Therefore, addition of IL-21 can rescue the glycolytic function of suppressed B cells. It is possible that IL-21 rescues antibody production primarily through enhancing metabolism. To determine if enhanced glycolysis was required for the IL-21 rescue of antibody production in suppressed cultures, glycolysis was blocked to determine if antibody responses could still be rescued in the absence of enhanced metabolism. […] Therefore, IL-21 renders B cells resistant to TFR mediated suppression primarily by enhancing metabolism.
# Whether IL-21 restored antibody production by acting directly on B cells was determined. Suppression assays were performed using B cells lacking the receptor for IL-21 (Il21r−/−). […] Since upregulation of GL7 is a robust indicator of B cell activation, its expression in suppressed cultures containing either Il21r+/+ B cells or Il21r−/− B cells and supplemented with IL-21 was compared.
# Since IL-21 could be affecting the TFH, B or TFR cell in the suppressed culture, whether the rescue of suppressed metabolism could be due to a combined effect of stimulating B cells and inhibiting TFR suppression (by acting directly on the TFR cell) was determined. […] Therefore, IL-21 rescue of TFR cell suppression of B and TFH cells is the result of modulation of B cells as well as inhibiting TFR cells.
# [2] = system: B cells from suppressed cultures; assay: RNA-seq transcriptional analysis of B cells from suppressed cultures supplemented with IL-21
# Experimental: In order to determine how B and TFH cells effector states are altered during TFR mediated suppression assays were performed followed by RNA-seq transcriptome analysis. In these experiments B and TFH cells (from immunized FoxP3-IRES-GFP mice) were cultured with or without TFR cells (from immunized ActinCFP FoxP3-IRES-GFP mice) for 6 days in the presence of NP-OVA (the same antigen used to generate the B, TFH and TFR cells). After 4 days of culture, B (sorted as CD19+IA+CD4−) and TFH (sorted as CD4+IA−CD19−CFP−) cells were sorted from the “activated” culture (TFH and B cells alone) or from the “suppressed” culture (TFH, B and TFR cells) and RNAseq transcriptional analysis was performed (FIG. 2A, FIG. 37A and FIG. 37B).
# In order to determine which B cell function genes were rescued at the transcriptional level, RNA-seq transcriptional analysis was performed on B cells from activated cultures, from suppressed cultures, and suppressed cultures supplemented with IL-21. […] In the case of Aicda and Pou2af1, it is possible that this may be due to the epigenetic modification of these gene loci by TFR cells, however this was not tested directly.
# Therefore, IL-21 overcomes TFR suppression by stimulating B cells as well as metabolic pathways.
# [3] = system: B cells cultured with TFH cells; assay: in vitro cultures of B and TFH cells (activated culture) with addition of pathway/metabolic inhibitors; details: inhibitor added to activated culture (B + TFH), anti-CD3/IgM
# Experimental: To determine the mechanisms of how TFH and B cells are altered during direct TFR suppression, an in vitro suppression assay in which TFR cells are cultured with TFH and B cells was utilized. See e.g., Sage et al., J Clin Invest 124, 5191-5204 (2014); Sage et al., Immunity 41, 1026-1039 (2014); Sage et al., Methods Mol Biol 1291, 151-160 (2015). For these assays, FoxP3IRES-GFP mice were immunized with NP-OVA (emulsified in CFA) subcutaneously and isolated draining lymph nodes 7 days later. TFR (sorted as CD4+ICOS+CXCR5+CD19− FoxP3+) cells were added to co-cultures of B (sorted as CD19+) and TFH (sorted as CD4+ICOS+CXCR5+CD19−FoxP3) cells along with anti-CD3 and anti-IgM for 2 to 6 days (FIG. 1A, FIG. 36A, and FIG. 36B).
# To determine if suppressing Myc in activated B cells could recapitulate TFR suppression, in vitro suppression assays were performed in which B cells were cultured with TFH cells, TFH and TFR cells, or TFH cells and the Myc inhibitor 10058-F4 (F4w).
# The mTOR pathway promotes protein synthesis during activation and has been linked to enhancing cellular metabolism. […] In vitro cultures of B and TFH cells were performed along with either the mTORc1 inhibitor rapamycin or TFR cells. […] Akt can act both upstream and downstream of mTOR to mediate activation signaling.
# To determine if inhibiting glycolysis could recapitulate TFR suppression, cultures of B and TFH cells were performed with the addition of 2-deoxyglucose (2DG), a glucose analog that blocks glycolysis.
# Therefore, whether inhibitors of purine metabolism could recapitulate TFR suppression in vitro was determined.
# [4] = cytokine added to suppressed culture
# [5] = cytokine added to suppressed cultures
# [6] = Il21r−/− B cells, suppressed cultures plus IL-21
# [7] = suppressed cultures with vs without IL-21
molecule,measurement,setting,value
IL-6: another Stat3 signaling cytokine,amount of secreted antibody in culture supernatants,[1]; [4],able to rescue
same,lactate production in culture supernatants,[1]; [5],substantially (although not completely) rescue
IL-21: cytokine essential in the germinal center reaction,GL7 expression in B cells,"[1]; Il21r+/+ B cells, suppressed cultures plus IL-21",restored
same,GL7 expression in B cells,[1]; [6],not
same,antibody responses (IgG1+GL7+ B cells),[1]; [6],no evidence was found that antibody responses were restored
same,number of B cells,[1]; [6],did not abolish the increase
same,restoration of CSR,[1]; [6],prevent the restoration
same,restoration of Glut1 expression on B cells,[1]; [6],prevent the restoration
same,proliferation of B cells (Cell Trace Violet dilution),[1]; cytokine added to suppressed culture (B + TFH + TFR),rescued
same,class switch recombination (IgG1+GL7+ B cells),"[1]; cytokine added to suppressed culture, compared to activated culture",much higher
same,amount of secreted antibody in culture supernatants,[1]; [4],mostly rescued
same,Glut1 expression on B cells,[1]; [5],completely rescued
same,Glut1 expression on TFH cells,[1]; [5],rescued
same,glucose consumption in the culture,[1]; [5],almost completely rescued
same,lactate production in culture supernatants,[1]; [5],substantially (although not completely) rescue
same,rescue of antibody production when glycolysis is blocked,[1]; suppressed cultures plus IL-21 with addition of 2-deoxyglucose (2DG),not being able to rescue suppression
same,Glut1 expression in TFR cells,[1]; [7],higher
same,intracellular Ki67 staining in TFR cells,[1]; [7],much less
same,genes differentially expressed on suppression that are rescued (RNA-seq),[2]; 12 genes differential in both suppressed vs IL-21 rescue and suppressed vs activated,only Ighg1 and Ighg2c were ‘rescued’
same,"Aicda, Xbp1 and Pou2af1 transcripts (RNA-seq)",[2]; suppressed plus IL-21 cultures,did not show any evidence of rescue
same,metabolic pathways (ssGSEA on RNA-seq),[2]; suppressed plus IL-21 cultures,some rescue of many metabolic pathways
same,B cell function gene transcripts (RNA-seq),[2]; suppressed vs. suppressed plus IL-21 cultures,"only transcripts for the individual IgG isotypes (Ighg1, Ighg2c, Ighg2b, Igha) showed evidence of significant upregulation"
"O=CC[C@@H](O)[C@H](O)[C@H](O)CO [2DG, 2-deoxyglucose]",secreted antibody / antibody production in culture supernatants,[3],robust suppression
"CN(Cc1cnc2nc(N)nc(N)c2n1)c1ccc(C(=O)N[C@@H](CCC(=O)O)C(=O)O)cc1 [MTX, Methotrexate]",class switch recombination (IgG1+GL7+ B cells),[3],potently suppressed
same,secreted antibody / antibody production in culture supernatants,[3],robustly suppresses
CCc1ccc(/C=C2/SC(=S)NC2=O)cc1 [10058-F4],class switch recombination (IgG1+GL7+ B cells),[3],slight diminishment
same,secreted antibody / antibody production in culture supernatants,[3],robustly attenuated
"Cn1cnc([N+](=O)[O-])c1Sc1ncnc2nc[nH]c12 [AZA, azathioprine]",class switch recombination (IgG1+GL7+ B cells),[3],potently suppressed
same,secreted antibody / antibody production in culture supernatants,[3],robust suppression
"IL-4: cytokine added to suppressed cultures (protein, UniProt P05112 25-153, looked up) Interleukin-4: HKCDITLQEIIKTLNSLTEQKTLCTELTVTDIFAASKNTTEKETFCRAATVLRQFYSHHEKDTRCLGATAQQFHRHKQLIRFLKRLDRNLWGLAGLNSCPVKEANQSTLENFLERLKTIMREKYSKCSS",amount of secreted antibody in culture supernatants,[1]; [4],did not occur

# — patent publication US11028364B2, “Compositions and methods for modulating an immune response” (President and Fellows of Harvard College, priority 2015, dated 2021)
